Patent US5190956A, “Certain N-substituted 3-oximino-2,4-dioxoquinolin-2,4-(1H)diones useful for treating viral infections” (Schering Corporation, priority 1990, dated 1993)

Legend:
HSV-2 (strain MS) = experiment: HSV-β-GAL assay (transient expression of beta galactosidase in transfected HeLa cells superinfected with HSV-2); assay type: cell-based; settings: HeLa cells transfected with pON 245^ori-, moi=5 pfu/cell, more than one number = additional tests; for IC50: Human alphaherpesvirus 2, HeLa, 24 h, read-out: ANTI-HSV ACTIVITY HSV-β-GAL ASSAY IC50
Protocol: HeLa and Vero cell cultures were maintained in Eagles Minimal Essential Medium which was supplemented with glutamine, penicillin, streptomycin and 10% fetal calf serum (10% EMEM). Stock cultures of HSV-2 (strain MS available from ATCC VR-540) were grown in and harvested from Vero cells. Viral stocks were titered in Vero cells according to established procedures.
Plasmid pON 245^ori- contains the promoter of the HSV-1 thymidine kinase (tk) gene located immediately 5' of the E. coli lac Z gene. In this arrangement, the tk promoter controls transcription from the bacterial gene in transient expression assays. Additionally, an SV40 polyadenylation signal is present at the 3' end of the lac Z gene to allow for the efficient translation of the mRNA in eucaryotic cells. The expression of beta galactosidase in a transient assay using pON 245^ori- is dependent upon superinfection of the transfected cells with HSV. […] For example, see U.S. application Ser. No. 07/435,491 filed Sep. 5, 1989, the disclosure of which is incorporated herein by reference thereto.
HeLa cells were seeded into 96 well microtiter plates and allowed to grow to 80% confluency (approximately 35000 cells/well). One half microgram of plasmid pON 245^ori- DNA was introduced into the cells of each well by the […] precipitation technique (Grahman and Van der Eb, 1973). Four to six hours later, the cells were rinsed with Hank's Balanced Salt Solution (HBSS), overlaid with 10% EMEM and incubated at 37° C. At 24 hrs post-transfection, cells were rinsed, overlaid with 10% EMEM again and re-incubated at 37° C. At 48 hrs. post-transfection, cells were rinsed and overlaid with either EMEM containing 2% fetal calf serum (2% EMEM), 2% EMEM containing HSV-2 (strain MS, Multiplicity of Infection [moi]=5 pfu/cell) or 2% EMEM containing HSV-2 and the appropriate concentration of the compound to be tested. Twenty-four hrs later, the cells were harvested and assayed for beta galactosidase activity as described below.
All determinations of beta galactosidase activity were performed in 96 well microtiter plates. The intracellar level of beta galactosidase activity in each well was determined from cell lysates of the monolayer cultures. Aliquots were assayed by incubation in the presence of beta galactosidase substrate, 4-methylumbelliferyl-β-D-galactoside (MUG, 125 ug/ml, Sigma), for 2 hrs. The generation of fluorescent product was quantified on a Microfluor microfluorimeter (Dynatech) after addition of 0.1M glycine, pH 10.3 (Spaete and Mocarski, 1985). The inhibitory activity of a compound was plotted versus the concentration and an IC50 value (the concentration of compound required to reduce beta glactosidase expression by 50%) was obtained for each compound tested.

[1] = Cytotoxicity, 3H-LEU assay (inhibition of HeLa cell translation); assay type: cell-based; settings: human; HeLa cells, tritiated leucine incorporation after overnight/24 hrs treatment; read-out: CYTOTOXICITY 3H-LEU ASSAY IC50
Protocol: HeLa cells were treated with inhibitory compound for 24 hrs, after which levels of translational activity were assayed.
For assay of translational activity, HeLa cultures were grown to 80% confluency in 96 well microtiter plates, treated with appropriate concentrations of compound in 2% EMEM during an overnight incubation at 37° C., then rinsed with HBSS and overlaid with […] of 2% EMEM containing 8 uCi of tritiated leucine (^3 H-LEU, 141 Cu/mMol, Amersham Corp., Arlington Heights Ill.). After a 1 hr incubation at 36.5° C., the cells were rinsed twice with phosphate buffered saline (PBS) and lysed in 400 ul/well of 1×PBS, 0.5% sodium dodecyl sulphate (SDS). After a 10 min incubation at 36.5° C., the contents of the well were transferred to a well in a Millititer HA microfiltration plate (Millipore Corp., Bedford, Mass.). The TCA insoluble proteins were precipitated onto the filter disc by a 10 min fixation with 5% TCA, followed by filtration under vacuum and three 10 minute rinse with 95% ethanol. The filters were dried at room temperature, cut from the milltitier plate and transferred to scintillation vials. TCA precipitable counts were assayed in 5 ml of Scintisol (Isolab, Akron, Ohio). The inhibitory activity of a compound was plotted versus the concentration and an IC50 value (that concentration of the compound required to decrease cellular translational activity by 50%) was derived for each compound.

HSV-2, strain MS = experiment: In vivo anti-HSV efficacy, prophylactic guinea pig model of HSV infection; settings: 60 mg per kg subcutaneously, T.I.D., 10 days, first dose 24 hrs before infection
Protocol: The in vivo assessment of anti-HSV efficacy was determined in the prophylactic guinea pig model of HSV infection described by Stansberry et al (1982). Dosing of guinea pigs was comprised of an initial treatment with test compound given 24 hrs prior to virus infection and subsequent administration of the compound every eight hours (T.I.D.) for a total of 10 days. Test compounds were administered subcutaneously in 0.5% buffered methyl cellulose at a dose of 60 mg per kg body weight of the animal. Animals were monitored daily for the developement of genital lesions and neurological symptomology, both of which were recorded and compared to the results obtained with parallel groups which received placebo or acyclovir treatment. Efficacy was evaluated for each compound by scoring the ability of the compound to ameliorate genital lesions produced by infection with HSV-2, strain MS, expressed as Maximum Lesion scores (MLS) on a scale of 1 (least lesions) to 4 (severe lesions).

Compound	IC50 (HSV-2 (strain MS))	CC50 at 24 h [1]	ANTI-HSV ACTIVITY HSV-β-GAL ASSAY IC50 (HSV-2 (strain MS); 24 hrs)	In-vivo anti-HSV activity (genital lesions, Maximum Lesion score) (HSV-2, strain MS)
O=C1C(=NO)C(=O)N(Cc2ccccc2)c2ccccc21 [Formula 1.03]	7 µg/mL	40 µg/mL	–	–
CN1C(=O)C(=NO)C(=O)c2ccccc21 [Formula 1.02]	7 µg/mL	27 µg/mL	–	–
CCCCCCCN1C(=O)C(=NO)C(=O)c2ccccc21 [Formula 1.04]	< 3 µg/mL	37 µg/mL	2.5 µg/mL	inactive
